Source: US7807367B2, “Enzymatic fluorometric assay for cAMP and adenylate cyclase and kits therefor” (Fuso Pharmaceutical Industries, Ltd., priority 1999, dated 2010)

Tested on: ventricular myocytes
Assay: Micro cAMP measurement in tissue cultures with enzymatic fluorometric assay
Format: cell-based, rat
Details: isolated ventricular myocytes of 1 day-old rats, 2 μM IBMX, isoproterenol 1 μM final, 5 minutes, one-tenth of eluent, cAMP standard curve
Experimental: Isolated ventricular myocytes were obtained from hearts of 1 day-old rats, grown in primary cultures. There were approximately 5 million viable myocardial cells per heart. After plating at a density of approximately 1 million cells per 100 mm, dish cells were grown in minimum essential medium with Hanks balanced salt solution containing 5% bovine calf serum cells. Simpson et al., Cir. Res., 51, 787 (1982). On day 4, the medium was changed. The cultures contained >90% myocardial cells and cell numbers were constant over time. Simpson et al., Cir. Res., 51, 787 (1982); Rocha-Singh et al., J. Clin. Invest., 88, 204 (1991); and Rocha-Singh et al., J. Clin. Invest., 88, 706 (1991)
Six plates of myocytes were randomized into two groups (n=3 plates/group). […]
A volume of 125 μL of the Detecting Reaction Mixture prepared from (E) (100 mM Tris-HCl, pH 8.0; 3.2 mM EDTA; 0.6 mM NADP^+; 1 U/mL Phosphoglucose isomerase; 0.5 U/mL Glucose-6-phosphate dehydrogenase) was added to each assay tube from Cycling Reactions. After 20 minutes at room temperature, the final concentration of NADPH was measured using a fluorometer (Optical Technology Devises, Inc., NY). The fluorometer was set such that a reading of 10 fluorometric units was equivalent to 1 nmol of NADPH in 900 μL of buffer (50 mM Tris-HCl, pH 8.0). […]

CC(C)NCC(O)c1ccc(O)c(O)c1 (stereo not shown) [isoproterenol]
actual value of cAMP: 680 pmol/100 mm plate
